Laboratory results from US9284308B2, “Methylene linked quinolinyl modulators of RORγt” (Janssen Pharmaceutica NV, priority 2013, dated 2016).
Values joined by “and” are separate entries in the source; they are usually repeats but may differ in a detail not shown here. Equal entries are not always repeated. Structures can show the parent of a compound that is named as a salt.

How the values were obtained:
[1] = molecular target: T1, human RORγt ligand binding domain (RORγt LBD) (Homo sapiens, UniProt P51449); experiment: RORγt ThermoFluor assay (ligand binding affinity from protein thermal stability)
T1 construct: His-tag (N); TurboTEV protease cleavage site (ENLYFQG) (N); made in house; host or cells: E. coli (pHIS1, modified pET vector)
T1 sequence (P51449 with tags, fused parts or gaps): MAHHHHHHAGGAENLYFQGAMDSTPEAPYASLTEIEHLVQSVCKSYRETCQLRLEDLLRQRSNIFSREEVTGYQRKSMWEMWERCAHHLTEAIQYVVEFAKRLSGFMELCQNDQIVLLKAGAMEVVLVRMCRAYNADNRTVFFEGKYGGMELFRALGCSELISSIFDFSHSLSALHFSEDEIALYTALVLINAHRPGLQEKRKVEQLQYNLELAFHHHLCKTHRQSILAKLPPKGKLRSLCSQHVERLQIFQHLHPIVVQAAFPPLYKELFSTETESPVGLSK
Protocol: This approach is applicable to a wide variety of systems, and rigorous in theoretical interpretation through quantitation of equilibrium binding constants (KD).
The shift in the melting point described as a ΔTm is proportional to the concentration and affinity of the ligand.
RORγt ThermoFluor® Assay Construct
Protein and compound solutions are dispensed into black 384-well polypropylene PCR microplates (Abgene) and overlayed with silicone oil (1 μL, Fluka, type DC 200) to prevent evaporation.
Bar-coded assay plates are robotically loaded onto a thermostatically controlled PCR-type thermal block and then heated at a typical ramp-rate of 1° C./min for all experiments. Fluorescence was measured by continuous illumination with UV light (Hamamatsu LC6) supplied via fiber optic and filtered through a band-pass filter (380-400 nm; >6 OD cutoff). Fluorescence emission of the entire 384-well plate was detected by measuring light intensity using a CCD camera (Sensys, Roper Scientific) filtered to detect 500±25 nm, resulting in simultaneous and independent readings of all 384 wells. Images were collected at each temperature, and the sum of the pixel intensity in a given area of the assay plate was recorded versus temperature. Reference wells contained RORγt without compounds, and the assay conditions were as follows: • 0.065 mg/mL RORγt • 60 μM 1,8-ANS • 100 mM Hepes, pH 7.0 • 10 mM NaCl • 2.5 mM GSH • 0.002% Tween-20
Project compounds were arranged in a pre-dosed mother plate (Greiner Bio-one) wherein compounds are serially diluted in 100% DMSO by 1:2 from a high concentration of 10 mM over 12 columns within a series (column 12 is a reference well containing DMSO, no compound). The compounds were robotically dispensed directly into assay plates (1×=[…]) using a Hummingbird capillary liquid handling instrument (Digilab). Following compound dispense, protein and dye in buffer was added to achieve the final assay volume of 3 μL, followed by 1 μL of silicone oil.

human RORγt LBD = molecular target: T2, human RORγt LBD (Homo sapiens, UniProt P51449); experiment: RORγt (LBD) reporter assay in HEK293T cells; format: cell-based; conditions: for inhibition at 6 µM: HEK-293T, read-out: RORγt (LBD) Reporter Assay, % inhibition @ 6 μM, 6 μM compound; for RORγt (LBD) Reporter Assay, % inhibition @ 6 μM: 6 μM compound
T2 construct: expressed in transfected cells; host or cells: HEK293T
T2 sequence (P51449 258-518): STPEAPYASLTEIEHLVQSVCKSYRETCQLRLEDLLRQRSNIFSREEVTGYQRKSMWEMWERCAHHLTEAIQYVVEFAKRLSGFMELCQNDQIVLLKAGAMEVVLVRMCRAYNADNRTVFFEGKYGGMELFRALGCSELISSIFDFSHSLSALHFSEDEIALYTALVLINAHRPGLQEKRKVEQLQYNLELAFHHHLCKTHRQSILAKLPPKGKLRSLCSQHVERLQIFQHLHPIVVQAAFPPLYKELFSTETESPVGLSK
Description: RORγt (LBD) Reporter Assay
Cells used in the assay were co-transfected with two constructs. The first construct, pBIND-RORγt LBD, contained the wild type human RORγt LBD fused to the DNA binding domain of the GAL4 protein. The second construct, pGL4.31 (Promega Cat no. C935A), contained multiple GAL4 responsive DNA elements upstream of firefly luciferase. […] The mutant construct was called pBIND-RORγt-AF2.
The pBIND vector contains the GAL4 DNA Binding Domain (GAL4 DBD) and the renilla luciferase gene under control of the SV40 promoter. Renilla luciferase expression serves as a control for transfection efficiency and cell viability.
The reporter assay was performed by transiently transfecting HEK293T cells with 5 μg of pBIND-RORγt LBD or pBIND-RORγt LBD-AF2 and 5 μg pGL4.31 (Promega Cat no. C935A) using Fugene 6 (Invitrogen Cat no. E2691) at a 1:6 ratio of DNA:Fugene 6 in a T-75 flask in which cells were at least 80% confluent. Twenty four hours after bulk transfection, cells were plated into 96-well plates at 50,000 cells/well in phenol-red free DMEM containing 5% Lipid Reduced FCS and Pen/Strep. Six hours after plating, cells were treated with compounds for 24 hours. Media was removed and cells were lysed with 50 μL 1× Glo Lysis Buffer (Promega). Dual Glo Luciferase Reagent (50 μL/well) was then added and firefly luciferase luminescence was read on an Envision after a ten minute incubation. Finally, Stop and Glo reagent (50 μL/well) was added and renilla luciferase luminescence was read on an Envision after a ten minute incubation. […] Agonist compounds increase RORγt-driven luciferase expression, and antagonist or inverse agonist compounds decrease luciferase expression.

Compound	Kd [1] [nM]	IC50 (human RORγt LBD)	inhibition at 6 µM (human RORγt LBD) [%]	RORγt (LBD) Reporter Assay, % inhibition @ 6 μM (human RORγt LBD) [%]
COc1nc2ccc(C(O)(c3ccc(Cl)cc3)c3cncn3C)cc2c(Cl)c1Cc1ccc(C(F)(F)F)nc1 (single isomer, unassigned) [Example 39b]	1100	1200 nM	86	–
COc1nc2ccc(C(O)(c3ccc(C)nc3C)c3cnnn3C)cc2c(Cl)c1Cc1ccc(F)cc1 (single isomer, unassigned) [Example 48b, (4-Chloro-3-(4-fluorobenzyl)-2-methoxyquinolin-6-yl)(2,6-dimethylpyridin-3-yl)(1-methyl-1H-1,2,3-triazol-5-yl)methanol]	250	~6000 nM	53	–
COc1nc2ccc(C(O)(c3ccc(C)nc3C)c3cnnn3C)cc2c(C#N)c1Cc1ccc(F)cc1 (single isomer, unassigned) [Example 49b, 6-((2,6-Dimethylpyridin-3-yl)(hydroxy)(1-methyl-1H-1,2,3-triazol-5-yl)methyl)-3-(4-fluorobenzyl)-2-methoxyquinoline-4-carbonitrile]	410	~3000 nM	–	62
COc1nc2ccc(C(O)(c3ccc(C)nc3C)c3cnnn3C)cc2c(C#N)c1Cc1ccc(F)cc1 (single isomer, unassigned) [Example 49c, 6-((2,6-Dimethylpyridin-3-yl)(hydroxy)(1-methyl-1H-1,2,3-triazol-5-yl)methyl)-3-(4-fluorobenzyl)-2-methoxyquinoline-4-carbonitrile]	2.7	38 nM and ~20 nM	–	83
COc1nc2ccc(C(O)(c3cnnn3C)c3cnc(C)n3C)cc2c(Cl)c1Cc1ccc(F)cc1 (single isomer, unassigned) [Example 65b]	0.095	22 nM	74	–
COc1nc2ccc(C(O)(c3cnnn3C)c3cnc(C)n3C)cc2c(Cl)c1Cc1ccc(F)cc1 (single isomer, unassigned) [Example 65c]	0.48	7.2 nM	–	–
COc1c(Cc2ccccc2)c(C(F)(F)F)nc2ccc(C(O)(c3ccc(Cl)cc3)c3cncn3C)cc12 (single isomer, unassigned) [Example 101c, (3-Benzyl-4-methoxy-2-(trifluoromethyl)quinolin-6-yl)(4-chlorophenyl)(1-methyl-1H-imidazol-5-yl)methanol]	–	–	–	89
Cn1cncc1C(O)(c1ccc(C(F)(F)F)nc1)c1ccc2nc(-c3nccn3C)c(Cc3ccccc3)c(Cl)c2c1 (single isomer, unassigned) [Example 113c, (3-Benzyl-4-chloro-2-(1-methyl-1H-imidazol-2-yl)quinolin-6-yl)(1-methyl-1H-imidazol-5-yl)(6-(trifluoromethyl)pyridin-3-yl)methanol•TFA]	1200	~2000 nM	–	–
Cn1cncc1C(O)(c1ccc(C(F)(F)F)nc1)c1ccc2nc(-n3cccn3)c(Cc3ccccc3)c(C#N)c2c1 (single isomer, unassigned) [Example 114b, 3-Benzyl-6-(hydroxy(1-methyl-1H-imidazol-5-yl)(6-(trifluoromethyl)pyridin-3-yl)methyl)-2-(1H-pyrazol-1-yl)quinoline-4-carbonitrile•TFA]	120	1400 nM	–	–
Cn1cncc1C(O)(c1ccc(C(F)(F)F)nc1)c1ccc2nc(-n3cccn3)c(Cc3ccccc3)c(C#N)c2c1 (single isomer, unassigned) [Example 114c, 3-Benzyl-6-(hydroxy(1-methyl-1H-imidazol-5-yl)(6-(trifluoromethyl)pyridin-3-yl)methyl)-2-(1H-pyrazol-1-yl)quinoline-4-carbonitrile•TFA]	710	1900 nM	–	–
CC(=O)N1CCC(C(O)(c2ccc3nc(C(F)(F)F)c(Cc4ccccc4)c(Cl)c3c2)c2cncn2C)CC1 (single isomer, unassigned) [Example 115b, 1-(4-((3-Benzyl-4-chloro-2-(trifluoromethyl)quinolin-6-yl)(hydroxy)(1-methyl-1H-imidazol-5-yl)methyl)piperidin-1-yl)ethanone•TFA]	58	480 nM	–	–
CC(=O)N1CCC(C(O)(c2ccc3nc(C(F)(F)F)c(Cc4ccccc4)c(Cl)c3c2)c2cncn2C)CC1 (single isomer, unassigned) [Example 115c, 1-(4-((3-Benzyl-4-chloro-2-(trifluoromethyl)quinolin-6-yl)(hydroxy)(1-methyl-1H-imidazol-5-yl)methyl)piperidin-1-yl)ethanone•TFA]	17	110 nM	–	–
COc1nc2ccc(C(N)(c3ccc(C(F)(F)F)nc3)c3cncn3C)cc2c(Cl)c1Cc1ccccc1 (single isomer, unassigned) [Example 120b, (3-Benzyl-4-chloro-2-methoxyquinolin-6-yl)(1-methyl-1H-imidazol-5-yl)(6-(trifluoromethyl)pyridin-3-yl)methanamine•TFA]	130	> 6000 nM	–	–
COc1nc2ccc(C(N)(c3ccc(C(F)(F)F)nc3)c3cncn3C)cc2c(Cl)c1Cc1ccccc1 (single isomer, unassigned) [Example 120c, (3-Benzyl-4-chloro-2-methoxyquinolin-6-yl)(1-methyl-1H-imidazol-5-yl)(6-(trifluoromethyl)pyridin-3-yl)methanamine•TFA]	1100	~6000 nM	–	–
CCN(CC)c1nc2ccc(C(O)(c3ccc(Cl)cc3)c3cncn3C)cc2c(C#N)c1Cc1ccc(-n2cccn2)cc1 (single isomer, unassigned) [Example 154b, 3-(4-(1H-pyrazol-1-yl)benzyl)-6-((4-chlorophenyl)(hydroxy)(1-methyl-1H-imidazol-5-yl)methyl)-2-(diethylamino)quinoline-4-carbonitrile]	–	–	101	–
CCN(CC)c1nc2ccc(C(O)(c3ccc(Cl)cc3)c3cncn3C)cc2c(C#N)c1Cc1ccc(-n2cccn2)cc1 (single isomer, unassigned) [Example 154c, 3-(4-(1H-pyrazol-1-yl)benzyl)-6-((4-chlorophenyl)(hydroxy)(1-methyl-1H-imidazol-5-yl)methyl)-2-(diethylamino)quinoline-4-carbonitrile]	–	–	73	–
COc1c(Cc2ccccc2)c(C(F)(F)F)nc2ccc(C(O)(c3ccc(C(F)(F)F)nc3)c3cncn3C)cc12 (centres unmarked) [Example 106a, (3-Benzyl-4-methoxy-2-(trifluoromethyl)quinolin-6-yl)(1-methyl-1H-imidazol-5-yl)(6-(trifluoromethyl)pyridin-3-yl)methanol•TFA]	–	~4000 nM	–	–
